SMILES strings stand for the structures.

Holding throughout (experiment): Glycosidase inhibition, spectrophotometric p-nitrophenyl glycoside assay
The subject of test [1] is β-Glucosidase from almonds. The note with it: 1 mM inhibitor; 37 °C, 30 min; NI = no inhibition up to 20 mM.
In test [2] the target is α-Glucosidase from Saccharomyces cerevisiae (Saccharomyces cerevisiae, UniProt P53341). The note with it: pH 7.2, read-out: Percentage inhibition (%) at 1 mM concentration of the inhibitor.
The subject of test [3] is β-Mannosidase from Helix pomatia.
Test [4] deals with T1, β-Galactosidase from Aspergillus oryzae (Aspergillus oryzae, UniProt Q2UCU3).
T1 sequence (Q2UCU3 19-1005): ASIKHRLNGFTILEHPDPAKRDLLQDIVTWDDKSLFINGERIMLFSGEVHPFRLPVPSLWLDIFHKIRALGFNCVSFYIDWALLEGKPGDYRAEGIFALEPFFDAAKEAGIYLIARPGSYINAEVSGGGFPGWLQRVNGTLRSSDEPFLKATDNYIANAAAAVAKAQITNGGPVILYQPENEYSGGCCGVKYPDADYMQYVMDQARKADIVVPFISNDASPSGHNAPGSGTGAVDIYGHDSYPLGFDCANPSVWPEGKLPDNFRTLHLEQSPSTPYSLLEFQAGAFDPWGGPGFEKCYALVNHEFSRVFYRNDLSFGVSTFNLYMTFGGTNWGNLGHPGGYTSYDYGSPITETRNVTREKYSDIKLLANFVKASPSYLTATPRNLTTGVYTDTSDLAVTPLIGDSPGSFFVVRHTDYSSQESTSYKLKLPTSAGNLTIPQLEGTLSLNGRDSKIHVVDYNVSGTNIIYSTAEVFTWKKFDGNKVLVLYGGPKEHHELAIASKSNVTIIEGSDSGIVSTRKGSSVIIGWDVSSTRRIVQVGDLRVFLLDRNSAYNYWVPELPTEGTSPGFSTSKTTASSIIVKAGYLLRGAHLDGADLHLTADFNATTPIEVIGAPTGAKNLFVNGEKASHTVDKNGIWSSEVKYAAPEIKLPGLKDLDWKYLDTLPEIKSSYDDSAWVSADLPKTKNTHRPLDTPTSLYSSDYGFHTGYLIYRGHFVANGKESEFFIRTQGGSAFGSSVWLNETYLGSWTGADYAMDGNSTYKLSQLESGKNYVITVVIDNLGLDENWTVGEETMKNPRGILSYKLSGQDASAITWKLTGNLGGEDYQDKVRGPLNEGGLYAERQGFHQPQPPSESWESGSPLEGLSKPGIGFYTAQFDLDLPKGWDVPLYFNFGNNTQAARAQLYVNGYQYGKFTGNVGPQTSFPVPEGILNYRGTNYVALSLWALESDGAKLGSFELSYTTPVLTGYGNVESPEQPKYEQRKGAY

In test [5] the target is T2, α-Mannosidase from jack bean (Canavalia ensiformis, UniProt C0HJB3).
T2 sequence (C0HJB3 1-981): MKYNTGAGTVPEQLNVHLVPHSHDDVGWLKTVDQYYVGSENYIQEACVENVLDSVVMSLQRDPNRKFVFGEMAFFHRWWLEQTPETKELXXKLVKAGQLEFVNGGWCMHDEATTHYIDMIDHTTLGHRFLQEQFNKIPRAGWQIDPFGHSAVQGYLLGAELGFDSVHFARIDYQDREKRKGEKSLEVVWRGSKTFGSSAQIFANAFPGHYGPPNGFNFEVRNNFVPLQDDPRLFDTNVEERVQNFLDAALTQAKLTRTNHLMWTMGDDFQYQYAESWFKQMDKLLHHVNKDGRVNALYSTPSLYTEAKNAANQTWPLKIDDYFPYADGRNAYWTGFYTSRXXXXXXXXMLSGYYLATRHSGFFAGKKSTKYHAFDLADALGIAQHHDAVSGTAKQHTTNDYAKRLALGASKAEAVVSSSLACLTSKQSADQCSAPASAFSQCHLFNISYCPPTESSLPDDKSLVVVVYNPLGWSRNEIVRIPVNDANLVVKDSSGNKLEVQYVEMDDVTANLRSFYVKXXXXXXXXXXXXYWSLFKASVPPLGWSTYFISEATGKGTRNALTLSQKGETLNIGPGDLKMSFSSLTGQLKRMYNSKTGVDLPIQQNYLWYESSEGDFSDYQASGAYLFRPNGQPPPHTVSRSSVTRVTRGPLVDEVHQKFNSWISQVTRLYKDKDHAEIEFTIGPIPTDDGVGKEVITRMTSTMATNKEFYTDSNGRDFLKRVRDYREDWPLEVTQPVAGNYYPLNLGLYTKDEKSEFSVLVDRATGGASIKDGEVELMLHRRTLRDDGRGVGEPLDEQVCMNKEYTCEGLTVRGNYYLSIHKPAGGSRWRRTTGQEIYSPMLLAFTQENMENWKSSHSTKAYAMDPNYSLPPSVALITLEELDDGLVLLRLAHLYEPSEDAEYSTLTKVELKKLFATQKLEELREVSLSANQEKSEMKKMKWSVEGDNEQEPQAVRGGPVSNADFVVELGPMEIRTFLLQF
As to conditions: for inhibition at 1000 µM: pH 4.5, read-out: Percentage inhibition (%) at 1 mM concentration of the inhibitor.

Test [6] concerns the target α-Galactosidase from green coffee beans (Coffea arabica, UniProt Q42656).

Chain of α-Glucosidase from Saccharomyces cerevisiae (P53341 whole entry): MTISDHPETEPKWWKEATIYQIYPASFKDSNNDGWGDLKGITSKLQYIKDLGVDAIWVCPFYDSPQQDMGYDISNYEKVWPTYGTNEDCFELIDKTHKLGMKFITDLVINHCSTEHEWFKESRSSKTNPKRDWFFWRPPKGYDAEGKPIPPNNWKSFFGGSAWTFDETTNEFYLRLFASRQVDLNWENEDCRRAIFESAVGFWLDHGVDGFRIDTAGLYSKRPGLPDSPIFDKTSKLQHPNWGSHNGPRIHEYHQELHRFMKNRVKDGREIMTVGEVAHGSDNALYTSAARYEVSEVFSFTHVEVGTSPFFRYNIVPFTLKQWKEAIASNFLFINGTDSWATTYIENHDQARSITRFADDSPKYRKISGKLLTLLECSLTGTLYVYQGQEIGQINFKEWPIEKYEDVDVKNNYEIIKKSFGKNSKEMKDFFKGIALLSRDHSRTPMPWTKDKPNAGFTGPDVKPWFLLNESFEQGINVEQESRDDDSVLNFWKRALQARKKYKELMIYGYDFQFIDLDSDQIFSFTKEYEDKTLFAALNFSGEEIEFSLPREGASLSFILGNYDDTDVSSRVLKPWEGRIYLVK
Chain of α-Galactosidase from green coffee beans (Q42656 16-378): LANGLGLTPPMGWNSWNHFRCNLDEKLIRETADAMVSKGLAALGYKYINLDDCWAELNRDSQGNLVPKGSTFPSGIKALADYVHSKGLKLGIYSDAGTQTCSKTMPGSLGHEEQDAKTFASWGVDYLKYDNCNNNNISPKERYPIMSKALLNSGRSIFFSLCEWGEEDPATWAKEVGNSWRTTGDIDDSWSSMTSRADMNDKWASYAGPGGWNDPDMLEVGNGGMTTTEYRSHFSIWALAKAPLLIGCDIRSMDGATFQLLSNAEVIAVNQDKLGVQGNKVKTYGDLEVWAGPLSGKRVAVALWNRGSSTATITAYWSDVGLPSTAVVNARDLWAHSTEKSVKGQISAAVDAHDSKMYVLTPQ

For `O=C1CC=C(CO)[C@@H](O)[C@H](O)[C@@H]1O` [Compound 4, (5R,6S,7S)-5,6,7-Trihydroxy-4-(hydroxymethyl)cyclohept-3-enone], the “Percentage inhibition (%) at 1 mM concentration of the inhibitor” value (shortened to “Percentage inhibition (%)”) in test [1] was 12.3%. In test [2], the inhibition at 1000 µM is 41.1%. Moreover, the “inhibition as stated in text” value in test [3] is on record as “could inhibit”.
Consider `C[C@@H]1CC[C@@H](O)[C@@H](O)[C@@H](O)[C@@H]1O` [Compound 16, (1R,2R,3S,4R,5R)-5-Methylcycloheptane-1,2,3,4-tetraol], for which the “inhibition as stated in text” value is given as “inhibits” in test [4] and “inhibited” in test [5]. The inhibition at 1000 µM in test [4] (pH 7.2, read-out: Percentage inhibition (%) at 1 mM concentration of the inhibitor) turned out to be 12.8%; in test [5], 35.1%. In addition, the “Percentage inhibition (%)” value in test [1] is listed as 29.8%.
For `OCC1=CC[C@H](O)[C@@H](O)[C@@H](O)[C@@H]1O` [Compound 5, (1S,2R,3S,4R)-5-(Hydroxymethyl)cyclohept-5-ene-1,2,3,4-tetraol], the inhibition at 1000 µM in test [2] came out at 3.3%. In addition, in test [5], the “inhibition as stated in text” value is “inhibited” and the inhibition at 1000 µM turned out to be 12.5%.
For the compound `OCC1=CC[C@@H](O)[C@@H](O)[C@@H](O)[C@@H]1O` [Compound 6, (1R,2R,3S,4R)-5-(Hydroxymethyl)cyclohept-5-ene-1,2,3,4-tetraol], the “inhibition as stated in text” value in test [6] is “inhibited”. Also, the inhibition at 1000 µM was 41.7% in test [6] (pH 6.8, read-out: Percentage inhibition (%) at 1 mM concentration of the inhibitor) and 22.1% in test [2]. Moreover, the “Percentage inhibition (%)” value in test [1] was 3.2%.
As for `C[C@H]1CC[C@@H](O)[C@@H](O)[C@@H](O)[C@@H]1O` [Compound 15, (1R,2R,3S,4R,5S)-5-Methylcycloheptane-1,2,3,4-tetraol], the “Percentage inhibition (%)” value in test [1] worked out at 14.1%. Moreover, the inhibition at 1000 µM in test [2] was determined as 19.5%. In addition, in test [5], the “inhibition as stated in text” value is “inhibited” and the inhibition at 1000 µM came to 10.6%.

Values taken from paper PMC8698521 (RSC Advances, 2021).
